Tests used:
human NLRP3 [1] = biological target: T1, human NLRP3 (Homo sapiens (Human), UniProt Q96P20); assay: Scintillation Proximity (SPA) NLRP3 Assay: displacement of 3H-MCC950; type: binding; conditions: for IC50: read-out: SPA IC50
human NLRP3 [2] = biological target: T1, human NLRP3; assay: Human PBMC NLRP3 Assay (LPS priming, ATP stimulation, cytokine measurement); type: cell-based
human NLRP3 [3] = biological target: T1, human NLRP3; assay: Human Whole Blood (hWB) NLRP3 Assay (LPS/ATP, IL-1β); type: cell-based
[4] = human PBMC, LPS priming, ATP stimulation, read-out: PBMC IC50
[5] = human whole blood, LPS/ATP, IL-1β, read-out: hWB IC50
[6] = PBMC IC50, human PBMC, LPS priming, ATP stimulation
[7] = hWB IC50, human whole blood, LPS/ATP, IL-1β

T1 sequence (Q96P20 whole entry): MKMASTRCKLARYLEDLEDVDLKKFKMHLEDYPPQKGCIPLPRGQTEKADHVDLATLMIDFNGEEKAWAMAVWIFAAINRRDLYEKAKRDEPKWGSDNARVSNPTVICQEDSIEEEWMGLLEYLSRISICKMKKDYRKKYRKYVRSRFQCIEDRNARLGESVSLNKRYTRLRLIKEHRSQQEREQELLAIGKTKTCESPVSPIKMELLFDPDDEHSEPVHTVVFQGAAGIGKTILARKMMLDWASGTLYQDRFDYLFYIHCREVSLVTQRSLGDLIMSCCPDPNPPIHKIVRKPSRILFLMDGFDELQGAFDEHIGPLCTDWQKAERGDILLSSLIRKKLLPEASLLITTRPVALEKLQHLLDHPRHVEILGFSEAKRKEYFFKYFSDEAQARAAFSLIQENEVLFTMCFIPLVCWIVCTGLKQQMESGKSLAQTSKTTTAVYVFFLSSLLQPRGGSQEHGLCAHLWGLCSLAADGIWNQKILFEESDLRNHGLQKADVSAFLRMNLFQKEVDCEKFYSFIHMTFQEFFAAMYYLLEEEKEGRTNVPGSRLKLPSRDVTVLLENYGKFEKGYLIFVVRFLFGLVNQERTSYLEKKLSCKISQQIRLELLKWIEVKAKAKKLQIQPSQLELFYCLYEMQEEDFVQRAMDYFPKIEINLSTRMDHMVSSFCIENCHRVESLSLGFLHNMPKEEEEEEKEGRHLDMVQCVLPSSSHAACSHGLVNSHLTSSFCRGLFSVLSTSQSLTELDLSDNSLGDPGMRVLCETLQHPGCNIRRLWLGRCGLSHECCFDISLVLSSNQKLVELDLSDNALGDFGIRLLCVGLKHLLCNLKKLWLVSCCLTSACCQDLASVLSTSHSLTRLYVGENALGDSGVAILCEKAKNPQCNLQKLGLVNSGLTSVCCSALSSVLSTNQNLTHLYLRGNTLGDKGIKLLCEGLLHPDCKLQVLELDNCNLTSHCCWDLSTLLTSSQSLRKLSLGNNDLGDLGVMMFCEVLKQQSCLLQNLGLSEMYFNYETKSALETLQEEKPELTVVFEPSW

Row | SMILES | IC50 (human NLRP3 [1]; displacement of 3H-MCC950) | IC50 (human NLRP3 [2]; [4]) | IC50 (human NLRP3 [3]; [5]) | also measured
1 | O=C(N[C@@H]1CCCN(c2nnn[nH]2)C1)C1(c2ccc(Cl)cc2O)CC1 [Compound 15A, (R)-N-(1-(1H-tetrazol-5-yl)piperidin-3-yl)-1-(4-chloro-2-hydroxyphenyl)cyclopropane-1-carboxamide] | 1 to 10 µM | 0.1 to 0.5 µM | < 1 µM | IC50 (human NLRP3 [1]): 1.8 µM; fold increase in binding activity (SPA IC50) (human NLRP3 [1]; relative to Compound 10A): > 5 fold; IC50 (human NLRP3 [2]; read-out: PBMC IC50): 0.2 µM; fold increase in potency as measured by PBMC IC50 (human NLRP3 [2]; relative to Compound 10A): > 10 fold; IC50 (human NLRP3 [3]; read-out: hWB IC50): 0.54 µM; fold increase in potency as measured by hWB IC50 (human NLRP3 [3]; relative to Compound 10A): > 13 fold
2 | C[C@@H]1C[C@@H](NC(=O)C2(c3ccc(OC(F)(F)F)cc3)CC2)[C@H]2CC[C@@H]1N2c1nnn[nH]1 [82A*, N-((1R,2R,4R,5S)-4-methy1-8-(1H-tetrazol-5-yl)-8-azabicyclo[3.2.1]octan-2-yl)-1-(4-(trifluoromethoxy)phenyl)cyclopropane-1-carboxamide] | < 1 µM | – | – | IC50 (human NLRP3 [2]; [6]): < 0.01 µM; IC50 (human NLRP3 [3]; [7]): < 1 µM
3 | C[C@H]1CC[C@H](NC(=O)C2(c3ccc(C(F)(F)F)cc3O)CC2)CN(c2nnn[nH]2)C1 [89B*, 1-(2-hydroxy-4-(trifluoromethyl)phenyl)-N-((3S,6S)-6-methyl-1-(1H-tetrazol-5-yl)azepan-3-yl)cyclopropane-1-carboxamide] | < 1 µM | 0.01 to 0.1 µM | > 3 µM | –
4 | O=C(N[C@@H]1CCC[C@@H]2CC[C@H]1N2c1nnn[nH]1)C1(c2ccc(C(F)(F)F)cc2O)CC1 [88A*, N-((1R,2R,6R)-9-(1H-tetrazol-5-yl)-9-azabicyclo[4.2.1]nonan-2-yl)-1-(2-hydroxy-4-(trifluoromethyl)phenyl)cyclopropane-1-carboxamide] | < 1 µM | – | – | IC50 (human NLRP3 [2]; [6]): < 0.01 µM; IC50 (human NLRP3 [3]; [7]): < 1 µM
5 | C[C@H]1CC[C@@H](NC(=O)C2(c3ccc(C(F)(F)F)cc3O)CC2)CN(c2nnn[nH]2)C1 [89A*, 1-(2-hydroxy-4-(trifluoromethyl)phenyl)-N-((3R,6S)-6-methyl-1-(1H-tetrazol-5-yl)azepan-3-yl)cyclopropane-1-carboxamide] | < 1 µM | < 0.01 µM | 2 to 3 µM | –
6 | C[C@@H]1C[C@@H](NC(=O)C2(c3ccc(C(F)(F)F)cc3F)CC2)[C@H]2CC[C@@H]1N2c1nnn[nH]1 [84A*, 1-(2-fluoro-4-(trifluoromethyl)phenyl)-N-((1R,2R,4R,5S)-4-methyl-8-(1H-tetrazol-5-yl)-8-azabicyclo[3.2.1]octan-2-yl)cyclopropane-1-carboxamide] | < 1 µM | – | – | IC50 (human NLRP3 [2]; [6]): < 0.01 µM; IC50 (human NLRP3 [3]; [7]): < 1 µM
7 | O=C(N[C@@H]1CCCCCN(c2nnn[nH]2)C1)C1(c2ccc(Cl)cc2)CC1 (single isomer, unassigned) [14A*, N-(1-(1H-tetrazol-5-yl)azocan-3-yl)-1-(4-chlorophenyl)cyclopropane-1-carboxamide] | < 1 µM | 0.01 to 0.1 µM | 1 to 2 µM | –
8 | C[C@@H]1C[C@@H](NC(=O)C2(c3ccc(Cl)cc3)CC2)[C@H]2CC[C@@H]1N2c1nnn[nH]1 [80A*, 1-(4-chlorophenyl)-N-((1R,2R,4R,5S)-4-methyl-8-(1H-tetrazol-5-yl)-8-azabicyclo[3.2.1]octan-2-yl)cyclopropane-1-carboxamide] | < 1 µM | – | – | IC50 (human NLRP3 [1]): 0.13 µM; fold increase in binding activity (SPA IC50) (human NLRP3 [1]; relative to Compound 46A): 6.6 fold; IC50 (human NLRP3 [2]; PBMC IC50): 0.01 µM; IC50 (human NLRP3 [2]; [6]): 0.01 to 0.1 µM; fold increase in potency as measured by PBMC IC50 (human NLRP3 [2]; relative to Compound 46A): 10 fold; IC50 (human NLRP3 [3]; [7]): < 1 µM; IC50 (human NLRP3 [3]; read-out: hWB IC50): 0.84 µM; fold increase in potency as measured by hWB IC50 (human NLRP3 [3]; relative to Compound 46A): 3 fold
9 | O=C(N[C@@H]1CC[C@H]2CC[C@@H]1N2c1nnn[nH]1)C1(c2ccc(Cl)c(F)c2O)CC1 [76C*, N-((1S,2R,5S)-8-(1H-tetrazol-5-yl)-8-azabicyclo[3.2.1]octan-2-yl)-1-(4-chloro-3-fluoro-2-hydroxyphenyl)cyclopropane-1-carboxamide] | < 1 µM | 0.1 to 0.5 µM | 1 to 2 µM | –
10 | C[C@@H]1C[C@@H](NC(=O)C2(c3ccc(C4CC4)cc3)CC2)[C@H]2CC[C@@H]1N2c1nnn[nH]1 [81A*, 1-(4-cyclopropylphenyl)-N-((1R,2R,4R,5S)-4-methy1-8-(1H-tetrazol-5-yl)-8-azabicyclo[3.2.1]octan-2-yl)cyclopropane-1-carboxamide] | < 1 µM | – | – | IC50 (human NLRP3 [2]; [6]): 0.01 to 0.1 µM; IC50 (human NLRP3 [3]; [7]): < 1 µM
11 | C[C@@H]1C[C@@H](NC(=O)C2(c3ccc(C4CC4)c(F)c3O)CC2)[C@H]2CC[C@@H]1N2c1nnn[nH]1 [83A*, 1-(4-cyclopropy1-3-fluoro-2-hydroxyphenyl)-N-((1R,2R,4R,5S)-4-methy1-8-(1H-tetrazol-5-yl)-8-azabicyclo[3.2.1]octan-2-yl)cyclopropane-1-carboxamide] | < 1 µM | – | – | IC50 (human NLRP3 [2]; [6]): < 0.01 µM; IC50 (human NLRP3 [3]; [7]): < 1 µM
12 | C[C@H]1C[C@@H](NC(=O)C2(c3ccc(C4CC4(F)F)cc3O)CC2)CN(c2nnn[nH]2)C1 (single isomer, unassigned) [94A*] | < 1 µM | 0.01 to 0.1 µM | > 3 µM | –
13 | C[C@@H]1C[C@@H](NC(=O)C2(c3ccc(C(F)F)cc3)CC2)[C@H]2CC[C@@H]1N2c1nnn[nH]1 [86A*, 1-(4-(difluoromethyl)phenyl)-N-((1R,2R,4R,5S)-4-methy1-8-(1H-tetrazol-5-yl)-8-azabicyclo[3.2.1]octan-2-yl)cyclopropane-1-carboxamide] | < 1 µM | – | – | IC50 (human NLRP3 [2]; [6]): 0.01 to 0.1 µM; IC50 (human NLRP3 [3]; [7]): < 1 µM

More lines, main results first:

Row | IC50 (human NLRP3 [1]; displacement of 3H-MCC950) | IC50 (human NLRP3 [2]; [4]) | IC50 (human NLRP3 [3]; [5]) | SMILES | also measured
14 | < 1 µM | < 0.01 µM | < 1 µM | C[C@@H]1CCN(c2nnn[nH]2)C[C@H](NC(=O)C2(c3ccc(Br)cc3)CC2)C1 (single isomer, unassigned) [59A*] | –
15 | < 1 µM | < 0.01 µM | < 1 µM | C[C@@H]1CCN(c2nnn[nH]2)C[C@H](NC(=O)C2(c3ccc(Cl)cc3O)CC2)C1 (single isomer, unassigned) [60A*] | –
16 | < 1 µM | 0.01 to 0.1 µM | < 1 µM | C[C@H]1C[C@@H](NC(=O)C2(c3ccc(C4CC4)cc3O)CC2)CN(c2nnn[nH]2)C1 [Compound 23A, 1-(4-cyclopropyl-2-hydroxyphenyl)-N-((3R,5S)-5-methyl-1-(1H-tetrazol-5-yl)piperidin-3-yl)cyclopropane-1-carboxamide] | –
17 | < 1 µM | 0.01 to 0.1 µM | < 1 µM | C[C@@H]1CCN(c2nnn[nH]2)C[C@@H](NC(=O)C2(c3ccc(Cl)cc3O)CC2)C1 (single isomer, unassigned) [60B*] | –
18 | < 1 µM | < 0.01 µM | < 1 µM | C[C@@H]1CCN(c2nnn[nH]2)C[C@H](NC(=O)C2(c3ccc(C(F)(F)F)c(F)c3)CC2)C1 (single isomer, unassigned) [66A*] | –
19 | < 1 µM | 0.01 to 0.1 µM | < 1 µM | C[C@H]1C[C@@H](NC(=O)C2(c3ccc(OC(F)(F)F)cc3O)CC2)CN(c2nnn[nH]2)C1 [Compound 17A, 1-(2-hydroxy-4-(trifluoromethoxy)phenyl)-N-((3R,5S)-5-methyl-1-(1H-tetrazol-5-yl)piperidin-3-yl)cyclopropane-1-carboxamide] | IC50 (human NLRP3 [1]): 0.098 µM; IC50 (human NLRP3 [2]; read-out: PBMC IC50): 0.017 µM; IC50 (human NLRP3 [3]; read-out: hWB IC50): 0.23 µM
20 | < 1 µM | < 0.01 µM | 2 to 3 µM | C[C@@H]1CCN(c2nnn[nH]2)C[C@H](NC(=O)C2(c3ccc(C(F)(F)F)c(F)c3O)CC2)C1 (single isomer, unassigned) [31A*, 1-(3-fluoro-2-hydroxy-4-(trifluoromethyl)phenyl)-N-(5-methyl-1-(1H-tetrazol-5-yl)azepan-3-yl)cyclopropane-1-carboxamide] | –
21 | < 1 µM | 0.01 to 0.1 µM | < 1 µM | C[C@@H]1CCN(c2nnn[nH]2)C[C@H](NC(=O)C2(c3ccc(OC(F)F)cc3)CC2)C1 (single isomer, unassigned) [58A*] | –
22 | < 1 µM | < 0.01 µM | < 1 µM | C[C@@H]1CCN(c2nnn[nH]2)C[C@H](NC(=O)C2(c3ccc(OC(F)(F)F)cc3O)CC2)C1 (single isomer, unassigned) [62A*] | –
23 | < 1 µM | < 0.01 µM | < 1 µM | Cc1ccc(C2(C(=O)N[C@@H]3C[C@H](C)CCN(c4nnn[nH]4)C3)CC2)c(O)c1F (single isomer, unassigned) [74A*] | –
24 | < 1 µM | < 0.01 µM | < 1 µM | Cc1ccc(C2(C(=O)N[C@@H]3C[C@H](C)CCN(c4nnn[nH]4)C3)CC2)c(O)c1 (single isomer, unassigned) [67A*] | –
25 | < 1 µM | 0.01 to 0.1 µM | < 1 µM | C[C@@H]1CCN(c2nnn[nH]2)C[C@H](NC(=O)C2(c3ccc(OC(F)(F)F)cc3F)CC2)C1 (single isomer, unassigned) [64A*] | –
26 | < 1 µM | 0.1 to 0.5 µM | > 3 µM | C[C@H]1C[C@@H](NC(=O)C2(c3ncc(C(F)(F)F)cc3O)CC2)CN(c2nnn[nH]2)C1 [Compound 25A, 1-(3-hydroxy-5-(trifluoromethyl)pyridin-2-yl)-N-((3R,5S)-5-methyl-1-(1H-tetrazol-5-yl)piperidin-3-yl)cyclopropane-1-carboxamide] | –
27 | < 1 µM | 0.1 to 0.5 µM | > 3 µM | C[C@@H]1CCN(c2nnn[nH]2)C[C@H](NC(=O)C2(c3ccc(Cl)nc3O)CC2)C1 (single isomer, unassigned) [100A*] | –
28 | < 1 µM | 0.01 to 0.1 µM | 2 to 3 µM | C[C@@H]1CCN(c2nnn[nH]2)C[C@H](NC(=O)C2(c3cnc(Cl)cc3O)CC2)C1 (single isomer, unassigned) [99A*] | –
29 | < 1 µM | 0.01 to 0.1 µM | > 3 µM | C[C@H]1C[C@@H](NC(=O)C2(c3c(O)cc(C4CC4)cc3OC(F)(F)F)CC2)CN(c2nnn[nH]2)C1 (single isomer, unassigned) [95A*] | –
30 | < 1 µM | < 0.01 µM | 1 to 2 µM | C[C@@H]1CCN(c2nnn[nH]2)C[C@H](NC(=O)C2(c3ccc(Cl)cc3F)CC2)C1 (single isomer, unassigned) [56A*] | –

Source: patent US20260007684A1, “AMIDE DERIVATIVES FOR INHIBITING NLRP3 AND USES THEREOF” (Ventus Therapeutics U.S., Inc., priority 2023, published 2026)
